Experimental data reported in patent publication US11083724B2, “Rimegepant for CGRP related disorders” (Biohaven Pharmaceutical Holding Company Ltd., priority 2018, dated 2021).

Columns and labels:
[1] = system: subjects with Acute Migraines; assay: Study 301 (BHV3000-301, NCT03235479): Phase 3 double-blind placebo-controlled trial, rimegepant 75 mg tablet, acute treatment of migraine; assay type: in vivo, human; settings: for Freedom from MBS at 2 hours / Pain Freedom (pain-free) at 2 hours: N = 543
Experimental: Clinical Trial—BHV3000-301: Phase 3: Double-Blind, Randomized, Placebo-Controlled, Safety and Efficacy Trial of BHV-3000 (Rimegepant) for the Acute Treatment of Migraine (ClinicalTrials.gov Identifier: NCT03235479). A phase 3 clinical study was conducted with 1490 participants, as follows. The purpose of this study was to compare the efficacy of BHV-3000 (rimegepant) versus placebo in subjects with Acute Migraines Study Design • Study Type: Interventional (Clinical Trial) • Actual Enrollment: 1490 participants • Allocation: Randomized • Intervention Model: Parallel Assignment • Intervention Model Description: Double-blind to Sponsor, Investigator and Subject Randomized Controlled Trial • Masking: Triple (Participant, Care Provider, Investigator) • Masking Description: Double-blind to Sponsor, Investigator and Subject • Primary Purpose: Treatment • Official Title: BHV3000-301: Phase 3: Double-Blind, Randomized, Placebo-Controlled, Safety and Efficacy Trial of BHV-3000 (Rimegepant) for the Acute Treatment of Migraine Arms and Interventions Outcome Measures Primary Outcome Measures: • 1. Pain freedom of rimegepant (75 mg tablet) compared with placebo in the acute treatment of migraine will be measured using the number of evaluable subjects that report no pain at 2 hours post-dose. [Time Frame: Two hours post dose] • Pain will be measured on a 4 point Likert scale (0=none, 1=mild, 2=moderate, 3=severe) • 2. Freedom from the most bothersome symptom (MBS) of rimegepant (75 mg tablet) compared with placebo will be measured using the number of evaluable subjects that report the absence of their MBS at 2 hours post-dose. [Time Frame: Two hours post dose] • The MBS (nausea, phonophobia or photophobia) will measured using a binary scale (0=absent, 1=present). Secondary Outcome Measures: • 1. […] [Time Frame: 2 hours-24 hours post-dose] • Sustained Pain Freedom as measured by a 4 point numeric rating scale (None, Mild, Moderate, Severe) • 2. The difference between rimegepant (75 mg tablet) compared to placebo by tabulating the absence of photophobia at 2 hours post-dose in the subset of subjects that reported the presence of photophobia at headache baseline. [Time Frame: 2 hours post-dose] • Photophobia • 3. To evaluate rimegepant (75 mg tablet) compared to placebo by tabulating the number of subjects that report the absence of phonophobia at 2 hours post-dose in the subset of subjects that reported the presence of phonophobia at headache baseline. [Time Frame: 2 hours post-dose] • Phonophobia • 4. To measure the difference between rimegepant (75 mg tablet) compared to placebo on Pain Relief, at 2 hours post-dose, for those that report a pain level of moderate or severe at baseline and then report a pain level of none or mild. [Time Frame: 2 hours post-dose] • Pain Relief as measured by a 4 point numeric rating scale (None, Mild, Moderate, Severe) • 5. Freedom from Nausea by tabulating the number of subjects that report the absence of nausea at 2 hours post-dose in the subset of subjects that reported the presence of nausea at headache baseline. [Time Frame: 2 hours post-dose] • Freedom from Nausea • 6. The difference between rimegepant (75 mg tablet) compared to placebo on the probability of requiring rescue medication using the number of subjects that take rescue medication within […] administration of study medication (BHV3000 or placebo). [Time Frame: up to 24 hours post-dose] • Requiring Rescue Medication • 7. […] [Time Frame: 2 hours-24 hours post-dose] • Sustained Pain Freedom • 8. […] [Time Frame: 2 hours-24 hours post-dose] • Sustained Pain Relief as measured by a 4 point numeric rating scale (None, Mild, Moderate, Severe) • 9. […] [Time Frame: 2 hours-48 hours post-dose] • Sustained Pain Relief as measured by a 4 point numeric rating scale (None, Mild, Moderate, Severe) • 10. […]

[2] = system: subjects with Acute Migraines; assay: Pooled adverse event and liver function test data, Studies 301, 302 and 303; assay type: in vivo, human; settings: for bilirubin elevations > 2 × ULN: across Studies 301, 302 and 303
[3] = Study 301, single 75 mg tablet, listed as rimegepant
[4] = pooled Studies 301, 302, 303, n = 1,771
[5] = pooled Studies 301, 302, 303, n = 1,771, AST elevation, not drug-related
[6] = pooled Studies 301, 302, 303, within 48 hours post-dose, n = 1,771

N[C@@H]1c2cccnc2[C@H](OC(=O)N2CCC(n3c(=O)[nH]c4ncccc43)CC2)CC[C@H]1c1cccc(F)c1F [Rimegepant, [(5S,6S,9R)-5-amino-6-(2,3-difluorophenyl)-6,7,8,9-tetrahydro-5H-cyclohepta[b]pyridin-9-yl] 4-(2-oxo-3H-imidazo[4,5-b]pyridin-1-yl)piperidine-1-carboxylate]
SAEs related to the study drug ([1]; Study 301): No SAE | bilirubin elevations >2 times ULN ([1]; Study 301): No bilirubin elevations | transaminase level >5 times ULN ([1]; Study 301): no subject | AE dizziness ([1]; Study 301, 4/546): 0.7% | AE nausea ([1]; Study 301, 5/546): 0.9% | Serum ALT or AST levels greater than ULN ([1]; Study 301, 11/546): 2.0% | functional disability: patients achieving normal function at 2 hours versus placebo ([1]; Study 301, P<0.0001): greater proportion | Serious AEs (SAEs) ([1]; Study 301, n=2): 0.4% | transaminase level >3 times ULN ([1]; Study 301, one subject): 0.2% | Free from MBS at 2 hours, subjects [n/N] ([1]; Study 301, single 75 mg tablet): [199/543] | Nausea-free at 2 hours ([1]; Study 301, single 75 mg tablet): 46.9% | Nausea-free at 2 hours, subjects [n/N] ([1]; Study 301, single 75 mg tablet): [149/318] | Pain relief at 2 hours ([1]; Study 301, single 75 mg tablet): 56.0% | Pain relief at 2 hours, subjects [n/N] ([1]; Study 301, single 75 mg tablet): [304/543] | Pain-free at 2 hours, subjects [n/N] ([1]; Study 301, single 75 mg tablet): [104/543] | Phonophobia-free at 2 hours ([1]; Study 301, single 75 mg tablet): 38.6% | Phonophobia-free at 2 hours, subjects [n/N] ([1]; Study 301, single 75 mg tablet): [133/345] | Photophobia-free at 2 hours ([1]; Study 301, single 75 mg tablet): 34.9% | Photophobia-free at 2 hours, subjects [n/N] ([1]; Study 301, single 75 mg tablet): [164/470] | Sustained pain relief, 2-24 hours ([1]; Study 301, single 75 mg tablet): 38.9% | Sustained pain relief, 2-24 hours, subjects [n/N] ([1]; Study 301, single 75 mg tablet): [211/543] | Freedom from MBS at 2 hours ([1]; Study 301, single 75 mg tablet): 36.6% | Pain Freedom (pain-free) at 2 hours ([1]; Study 301, single 75 mg tablet): 19.2% | Freedom from MBS at 2 hours [1, 3]: 36.6% | Pain Freedom (pain-free) at 2 hours [1, 3]: 19.2% | Pain relief at 2 hours [1, 3]: 56.0% | sustained pain relief from 2 through 48 hours postdose versus placebo ([1]; Study 301, single dose, no rescue medication, P=0.0003): superiority versus placebo | sustained pain freedom from 2 through 48 hours postdose versus placebo ([1]; Study 301, single dose, no rescue medication, P=0.013): superiority versus placebo | bilirubin elevations > 2 × ULN [2]: *AST/ALT Categories are not mutually exclusive; No bilirubin elevations > 2 × ULN across Studies 301, 302 and 303 | bilirubin elevations > 2 × ULN ([2]; listed as rimegepant): no patients | drug-related Serious Adverse Events (SAEs) ([2]; pooled Studies 301, 302, 303): **No drug-related Serious Adverse Events (SAEs). 2 of the subjects with SAE in rimegepant group and 1 in placebo group had not been dosed before onset of SAE. | ALT or AST >3 × ULN, number of subjects [2, 4]: 2 | ALT or AST >3 × ULN, percent of subjects [2, 4]: (0.1%) | ALT or AST >20 × ULN, number of subjects [2, 4]: 0 | ALT or AST >ULN, number of subjects [2, 4]: 48 | ALT or AST >ULN, percent of subjects [2, 4]: (2.7%) | SAEs, number of patients [2, 4]: 3 | SAEs, percent of patients [2, 4]: 0.2% | ALT or AST >5 × ULN, number of subjects [2, 5]: 1 | ALT or AST >5 × ULN, percent of subjects [2, 5]: (0.06%)^2 | AE Nausea, number of patients [2, 6]: 26 | AE Nausea, percent of patients [2, 6]: 1.5% | AE UTI, number of patients [2, 6]: 21 | AE UTI, percent of patients [2, 6]: 1.2% | ≥1 On-Study AE, number of patients [2, 6]: 252 | ≥1 On-Study AE, percent of patients [2, 6]: 14.2%
